Measured values published in PMC11491004, “CHF6523 data suggest that the phosphoinositide 3-kinase delta isoform is not a suitable target for the management of COPD” (Respiratory Research, 2024).

Tests used:
[1] = test system: ion channels implicated in the cough reflex; assay: Electrophysiology in-vitro examination; assay type: biochemical
[2] = Safety and tolerability: adverse events; conditions: safety set N = 42
Experimental: Safety and tolerability were evaluated throughout the study in terms of the occurrence of adverse events, blood chemistry, haematology and urinalysis, vital signs, and 12-lead electrocardiograms. […] Throughout the study, patients were permitted to use salbutamol as rescue medication, but not within 6 h prior to any spirometry assessment – any rescue medication intake was also captured in the daily diary.
The safety set, used in the analysis of all safety variables, was all randomised patients who received at least one dose of study drug. […] Given the cross-over design, the inclusion of patients in the analysis sets was defined on a per-period basis.

[3] = test system: target biomarkers in sputum; assay: Target biomarkers of inflammation in induced sputum; assay type: in vivo, human; conditions: p < 0.05; with the exception of IL-5
Experimental: (§1) All assessment timings were based on the morning dose. Pre-dose on Days 1 and 28 of each treatment period, blood samples were taken for pharmacokinetic analyses, followed by forced oscillation (including slow vital capacity manoeuvres for inspiratory capacity [IC] and vital capacity [VC]), spirometry (forced expiratory volume in 1 s [FEV1] and forced vital capacity [FVC]), and the COPD Assessment Test (CAT). Blood samples were also taken up to 12 h post-dose on Days 1 and 28 for pharmacokinetic analyses, with blood samples for biomarker assessment pre-dose on Day 1 and 2 h post-dose on Day 28, and spirometry pre-dose on Days 20 and 24. […]
(§2) Fold-change from baseline in cell counts, target biomarkers in sputum and blood, and PIP3 were log-transformed and analysed using an analysis of covariance (ANCOVA) model, with treatment, patient, and period as fixed effects, and baseline value as covariate. Changes from baseline in spirometry, forced oscillation and CAT endpoints were analysed using a similar ANCOVA model, but without log transformation. Rescue medication data were analysed using an analysis of variance model, including treatment, period and patient as fixed effects. […]

[4] = Parts 1 and 2, single and multiple ascending dose; some mild inhalation-related cough; cited from earlier work
[5] = test system: target biomarkers in plasma; assay: Target biomarkers in plasma; assay type: in vivo, human; conditions: p < 0.05
Experimental: as §1, §2

[6] = CHF6523 plasma pharmacokinetics in patients with COPD; assay type: in vivo, human; conditions: for AUC0–30 min / AUC0–12 h / Cmax: 2 mg twice daily inhaled
Experimental: All assessment timings were based on the morning dose. Pre-dose on Days 1 and 28 of each treatment period, blood samples were taken for pharmacokinetic analyses, followed by forced oscillation (including slow vital capacity manoeuvres for inspiratory capacity [IC] and vital capacity [VC]), spirometry (forced expiratory volume in 1 s [FEV1] and forced vital capacity [FVC]), and the COPD Assessment Test (CAT). Blood samples were also taken up to 12 h post-dose on Days 1 and 28 for pharmacokinetic analyses, with blood samples for biomarker assessment pre-dose on Day 1 and 2 h post-dose on Day 28, and spirometry pre-dose on Days 20 and 24. Sputum was induced prior to each treatment period for baseline determination of biomarkers, and post-dose on Day 20 for collection of phosphatidylinositol (3,4,5)-trisphosphate (PIP3), and on Days 24 and 28 for collection of biomarkers.
Pharmacokinetic assessments were performed under fasting conditions. On days when pharmacokinetic samples were taken, study drug was administered in the morning at the clinical site after a fast of ≥ 10 h (water was allowed), with food or fluid intake not allowed until 1 h post-dose, with the exception of 100 mL of water if the patient coughed as a result of inhalation. Starting from 1 h post-dose and for the following 6 h, patients drank ≥ 240 mL of water every 2 h, with breakfast and lunch served approximately 3 and 5 h after morning study drug, and, on Day 1, dinner at least 2 h before or 1 h after evening drug administration. No intake of alcohol, grapefruit, or xanthine/caffeine containing beverages or food was allowed from 48 h prior to each intake of study medication and until the last visit procedure, with strenuous exercise prohibited for 24 h before any spirometry measurement.
Blood samples of 2 mL were collected in K2-EDTA tubes at pre-dose and at 10, 15, 30, and 45 min and 1, 1½, 2, 3, 4, 6, 8 and 12 h post-dose on Days 1 and 28, and pre-dose on Days 20 and 24. Collected samples were centrifuged within 1 h after blood in a refrigerated centrifuge (at about +4°C) at about 2000 x g for 10 min. The plasma obtained was transferred into two polypropylene tubes (at least 500 μL into the first, and the remaining volume into the second), then stored at or below –80°C, at the clinical centre. The tubes were then transferred (frozen) to a central laboratory, and stored at –80°C until submitted for analysis with a validated liquid chromatography with tandem mass spectrometry (LC/MS-MS) method. Two validated methods were used to cover the range of possible concentrations. The first one, the so-called low-range method, measured CHF6523 over the calibration range 0.02–1.00 ng/mL. The second, the high-range method, measured CHF6523 over the calibration range 1.00–50.0 ng/mL. Overall, the lower limit of quantification in this study (LLoQ) was of 0.02 ng/mL.

C[C@@H](c1oc(=O)c2ccccc2c1-c1cccc(CN2CCN(C)CC2)c1)n1nc(-c2cncc(O)c2)c2c(N)ncnc21 [CHF6523]
Impact on ion channels implicated in the cough reflex [1]: no discernible impact | Adverse events leading to death [2]: 0 Patients (%) | Adverse events: COVID-19 [2]: 5 (11.9%) Patients (%) | CHF6523–placebo differences in target biomarkers in sputum [3]: no statistically significant | Safety profile in healthy volunteers [4]: acceptable safety profile | CHF6523–placebo differences in the target biomarkers in plasma [5]: no statistically significant | Time of peak of mean plasma concentration ([6]; Day 1): 15 min | median tmax ([6]; Day 1): 15 min | median tmax ([6]; Day 28): 11 min | Time of peak of mean plasma concentration ([6]; Day 28 (first post-dose timepoint)): 10 min | AUC0–30 min ([6]; plasma, Day 1, mean (SD)): 3.28 (1.64) ng.h/mL | AUC0–12 h ([6]; plasma, Day 1, mean (SD)): 8.10 (4.11) ng.h/mL | Cmax ([6]; plasma, Day 1, mean (SD)): 9.10 (4.42) ng/mL | tmax ([6]; plasma, Day 1, median (range)): 0.25 (0.15–2.00) h | Ctrough ([6]; plasma, Day 20 pre-dose, mean (SD)): 0.10 (0.05) ng/mL | Ctrough ([6]; plasma, Day 24 pre-dose, mean (SD)): 0.09 (0.06) ng/mL | AUC0–30 min ([6]; plasma, Day 28, mean (SD)): 4.21 (2.05) ng.h/mL | AUC0–12 h ([6]; plasma, Day 28, mean (SD)): 10.50 (5.32) ng.h/mL | Cmax ([6]; plasma, Day 28, mean (SD)): 11.70 (5.54) ng/mL | CL/Fss (apparent total body clearance at steady state) ([6]; plasma, Day 28, dose/AUC 0-12 h, mean (SD)): 239 (119) L/h | Cav ([6]; plasma, Day 28, mean (SD)): 0.88 (0.45) ng/mL | Cmin ([6]; plasma, Day 28, mean (SD)): 0.09 (0.03) ng/mL | tmax ([6]; plasma, Day 28, median (range)): 0.18 (0.15–0.27) h | tmin ([6]; plasma, Day 28, median (range)): 11.92 (8.13–12.17) h | Ctrough ([6]; plasma, Day 28 pre-dose, mean (SD)): 0.09 (0.06) ng/mL
